Assay results as given in ChEMBL document CHEMBL1132908, “Synthesis and activity studies of conformationally restricted alpha-ketoamide factor Xa inhibitors” (Bioorg Med Chem Lett, 2000).

Legend:
[1] = target: Coagulation factor X (Homo sapiens, UniProt P00742); test: Inhibition of Coagulation factor X
[2] = target: Prothrombin (Homo sapiens, UniProt P00734); test: Binding affinity for human thrombin

Sequence of Coagulation factor X (P00742 41-179 limits assumed): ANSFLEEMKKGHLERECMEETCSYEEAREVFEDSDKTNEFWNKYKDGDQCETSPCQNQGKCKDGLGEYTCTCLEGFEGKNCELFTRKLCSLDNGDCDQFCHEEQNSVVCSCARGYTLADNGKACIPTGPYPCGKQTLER
Sequence of Coagulation factor X (P00742 235-488 limits assumed): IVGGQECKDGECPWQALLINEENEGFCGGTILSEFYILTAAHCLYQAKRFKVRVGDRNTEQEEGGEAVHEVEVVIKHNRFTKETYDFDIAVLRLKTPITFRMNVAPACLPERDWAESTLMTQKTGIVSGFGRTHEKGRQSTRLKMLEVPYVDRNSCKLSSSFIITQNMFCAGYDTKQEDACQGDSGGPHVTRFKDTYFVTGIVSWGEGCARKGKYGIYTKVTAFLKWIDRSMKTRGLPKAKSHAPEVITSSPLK

Row | SMILES | Ki [1] [nM] | Ki [2] [nM]
1 | CN(CC(=O)N[C@@H](CCCCN)C(=O)C(=O)NCCN1CCOCC1)C(=O)c1ccccc1Sc1ccccc1C#N | 200 | 8700
2 | CN(CC(=O)N[C@@H](CCCCN)C(=O)C(=O)Nc1ccc(Oc2cccc(N)c2)cc1)C(=O)c1ccccc1Sc1ccccc1C#N | 120 | 59
3 | CN(CC(=O)N[C@@H](CCCCN)B(O)O)C(=O)c1ccccc1S(=O)(=O)c1ccccc1 | 5800 | 97
4 | CN(CC(=O)N[C@@H](CCCCN)C(=O)C(=O)Nc1ccc(Oc2ccc(N)cc2)cc1)C(=O)c1ccccc1Sc1ccccc1C#N | 120 | 68
5 | CN(CC(=O)N[C@@H](CCCCN)C(=O)C(=O)NCc1ccccn1)C(=O)c1ccccc1Sc1ccccc1C#N | 360 | 7400
6 | CN(CC(=O)N[C@@H](CCCCN)C(=O)C(=O)Nc1cccc(N)c1)C(=O)c1ccccc1Sc1ccccc1C#N | 120 | 120

Stronger by Ki [1], values ahead:

Row | Ki [1] [nM] | Ki [2] [nM] | SMILES
7 | 17 | 1.6 | CN(CC(=O)N[C@@H](CCCCN)B(O)O)C(=O)c1ccccc1Sc1ccccc1
8 | 110 | 570 | CNC(=O)C(=O)[C@H](CCCCN)NC(=O)CN(C)C(=O)c1ccccc1Sc1ccccc1C#N
9 | 54 | 60 | CN(CC(=O)N[C@@H](CCCCN)C(=O)C(=O)Nc1ccccc1)C(=O)c1ccccc1Sc1ccccc1C#N
10 | 60 | 50 | CN(CC(=O)N[C@@H](CCCCN)C(=O)C(=O)Nc1ccc(Oc2cccnc2)cc1)C(=O)c1ccccc1Sc1ccccc1C#N
11 | 1.1 | 8.8 | CN(CC(=O)N[C@@H](CCCCN)B(O)O)C(=O)c1ccccc1Sc1ccccc1C#N
12 | 100 | 4.9 | CN(CC(=O)N[C@@H](CCCCN)B(O)O)C(=O)c1ccccc1Cc1ccccc1
